Converted amounts (≈) assume the structure as drawn.
How the values were obtained:
[1] = Growth rate and feed efficiency of animals when included in the feed rations (statement); format: in vivo; conditions: in words
Description: It is an embodiment of this invention to provide a method for promoting the growth of animals and improving their feed efficiency by administering to them a compound of this invention.
The method of administration of a compound of this invention is to incorporate it in the feed rations intended for the animal at a concentration of about 50-150 g/ton of feed, preferably about 100 g/ton. The animals are permitted to feed at liberty throughout the growth period. There are many specialized feed rations for different species of animals. The compounds of this invention can be used with any of the known rations.

[2] = Growth promotion and improved feed efficiency feeding test (rye diet); format: in vivo, male two-day-old broiler-type chicks; conditions: for Increase in feed efficiency / Increase in weight: over control group
Procedure: Growth promotion and improved feed efficiency were determined as follows:
Two groups of male two-day-old broiler-type chicks were placed into Petersime starter batteries and given feed and water ad libitum for the duration of each test. Each group was subdivided into six sub-groups with ten birds in each sub-group, thus providing sixty birds per group. One group received the basal feed ration, as given in Table 1 and served as a control. The other group receives the same ration, but in addition there was included P-2229 at a concentration of 100 g/ton. The basal ration was a rye diet which alters the microflora of the gut in the bird which results in a growth depressant effect. When a growth stimulant or promotant is added to the diet, the effect on the birds performance will be more apparent than if a corn base diet was used.
The test period was thirteen days. Individual live body weights and pen feed efficiencies were taken at 2 and 14 days of age.

[3] = system: Streptococcus hemolyticus; assay: Minimum inhibitory concentration, Streptococcus hemolyticus; format: cell-based; conditions: Streptococcus pyogenes
Pseudomonas aeruginosa = assay: Minimum inhibitory concentration, Pseudomonas aeruginosa; format: cell-based
Candida albicans = assay: Minimum inhibitory concentration, Candida albicans; format: cell-based
Escherichia coli = assay: Minimum inhibitory concentration, Escherichia coli; format: cell-based
Mycobacterium ranae = assay: Minimum inhibitory concentration, Mycobacterium ranae; format: cell-based
Staphylococcus aureus = assay: Minimum inhibitory concentration, Staphylococcus aureus; format: cell-based
Pencillium sp. = assay: Minimum inhibitory concentration, Pencillium sp.; format: cell-based
Aspergillus niger = assay: Minimum inhibitory concentration, Aspergillus niger; format: cell-based
[4] = system: Pasteurella pseudotuberculosis; assay: microbe, parasite or virus in culture; format: cell-based; conditions: Yersinia pseudotuberculosis
Shigella dysenteriae = assay: Minimum inhibitory concentration, Shigella dysenteriae; format: cell-based
Aspergillus fumigatus = assay: Minimum inhibitory concentration, Aspergillus fumigatus; format: cell-based
[5] = Table 3, feed consumed to weight gained, control 1.82
[6] = Table 1, 100 g/ton in feed, 13 days
[7] = when tested in feed rations, in words
[8] = Table 2, feed consumed to weight gained, control 1.56
[9] = Table 2, test of Example 1 repeated, control 208.77

O=[N+]([O-])C1(C(O)c2c[n+]([O-])c3ccccc3[n+]2[O-])CCCCC1 (stereo not drawn) [Example 15, α-(1-nitrocyclohexyl)-2-quinoxalinemethanol-1,4-dioxide]
feed efficiency ([1]; present-tense example): increases the feed efficiency
growth rate ([1]; present-tense example): improves the growth rate

CCC(C(O)c1c[n+]([O-])c2ccccc2[n+]1[O-])[N+](=O)[O-] (stereo not drawn) [Example P-2246, 2-(1-hydroxy-2-nitrobutyl)quinoxaline-1,4-dioxide]
Body weight gain, av ([2]; Table 3, control 128.6): 194.7 g
feed efficiency [2, 5]: 1.54
Increase in feed efficiency ([2]; Table 3): 15.4
Increase in weight ([2]; Table 3): 51.4%

CC(=O)OC(c1c[n+]([O-])c2ccccc2[n+]1[O-])C(C)(C)[N+](=O)[O-] (stereo not drawn) [Example P-2284, 2-(1-acetoxy-2-methyl-2-nitropropyl)quinoxaline-1,4-dioxide]
feed efficiency [1]: increases the feed efficiency
growth rate [1]: improves the growth rate

COC(=O)C(C(O)c1c[n+]([O-])c2ccccc2[n+]1[O-])[N+](=O)[O-] (stereo not drawn) [Example P-2229, methyl-α-nitro-β-hydroxy-2-quinoxalinepropionate-1,4-dioxide]
Body weight gain, av ([2]; Table 1, 100 g/ton in feed, 13 days, control 208.73): 218.75 g
feed efficiency ([2]; Table 1, feed consumed to weight gained, control 1.49): 1.48
Increase in feed efficiency [2, 6]: 0.7%
Increase in weight [2, 6]: 4.8%

CCCC(C(OC(C)=O)c1c[n+]([O-])c2ccccc2[n+]1[O-])[N+](=O)[O-] (stereo not drawn) [Example 16, 2-(1-acetoxy-2-nitropentyl)quinoxaline-1,4-dioxide]
feed efficiency ([1]; present-tense example): increases the feed efficiency
growth rate ([1]; present-tense example): improves the growth rate

CCC(C)(C(O)c1c[n+]([O-])c2ccccc2[n+]1[O-])[N+](=O)[O-] (stereo not drawn) [Example 14, 2-(1-hydroxy-2-methyl-2-nitrobutyl)quinoxaline-1,4-dioxide]
feed efficiency ([1]; present-tense example): increases the feed efficiency
growth rate ([1]; present-tense example): improves the growth rate

CC(=O)OC(c1c[n+]([O-])c2ccccc2[n+]1[O-])C1([N+](=O)[O-])CCCCC1 (stereo not drawn) [Example 18]
feed efficiency ([1]; present-tense example): increases the feed efficiency
growth rate ([1]; present-tense example): improves the growth rate

CCCC(C(O)c1c[n+]([O-])c2ccccc2[n+]1[O-])[N+](=O)[O-] (stereo not drawn) [Example 13, 2-(1-hydroxy-2-nitropentyl)quinoxaline-1,4-dioxide]
feed efficiency ([1]; present-tense example): increases the feed efficiency
growth rate ([1]; present-tense example): improves the growth rate

CCC(COC(C)=O)(C(OC(C)=O)c1c[n+]([O-])c2ccccc2[n+]1[O-])[N+](=O)[O-] (stereo not drawn) [Example 12, 2-(1-acetoxy-2-acetoxymethyl-2-nitrobutyl)quinoxaline-1,4-dioxide]
feed efficiency ([1]; present-tense example): increases the feed efficiency
growth rate ([1]; present-tense example): improves the growth rate

CCC(CO)(C(O)c1c[n+]([O-])c2ccccc2[n+]1[O-])[N+](=O)[O-] (stereo not drawn) [Example P-2280, 2-(1-hydroxy-2-hydroxymethyl-2-nitrobutyl)quinoxaline-1,4-dioxide]
MIC [3]: 500 to 1000 µg/mL (≈ 1620 to 3230 µM)
MIC (Pseudomonas aeruginosa): 500 to 1000 µg/mL (≈ 1620 to 3230 µM)
MIC (Candida albicans): 100 to 500 µg/mL (≈ 323 to 1620 µM)
MIC (Escherichia coli): 100 to 500 µg/mL (≈ 323 to 1620 µM)
MIC (Mycobacterium ranae): 50 to 100 µg/mL (≈ 162 to 323 µM)
MIC (Staphylococcus aureus): 500 to 1000 µg/mL (≈ 1620 to 3230 µM)
feed efficiency [2, 7]: improved efficiency
growth rate [2, 7]: improved growth rate
MIC (Pencillium sp.): 100 to 500 µg/mL (≈ 323 to 1620 µM)
MIC (Aspergillus niger): 100 to 500 µg/mL (≈ 323 to 1620 µM)
MIC [4]: 50 to 100 µg/mL (≈ 162 to 323 µM)
MIC (Shigella dysenteriae): 500 to 1000 µg/mL (≈ 1620 to 3230 µM)
MIC (Aspergillus fumigatus): 500 to 1000 µg/mL (≈ 1620 to 3230 µM)

CCC(C)(C(OC(C)=O)c1c[n+]([O-])c2ccccc2[n+]1[O-])[N+](=O)[O-] (stereo not drawn) [Example 17, 2-(1-acetoxy-2-methyl-2-nitrobutyl)quinoxaline-1,4-dioxide]
feed efficiency ([1]; present-tense example): increases the feed efficiency
growth rate ([1]; present-tense example): improves the growth rate

CC(=O)OC(C[N+](=O)[O-])c1c[n+]([O-])c2ccccc2[n+]1[O-] (stereo not drawn) [Example P-2243, 2-(1-acetoxy-2-nitroethyl)quinoxaline-1,4-dioxide]
Body weight gain, av ([2]; Table 6, control 144.7): 240.5 g
feed efficiency ([2]; Table 6, feed consumed to weight gained, control 1.69): 1.48
Increase in feed efficiency ([2]; Table 6): 12.4
Increase in weight ([2]; Table 6): 66.2%

CC(C(O)c1c[n+]([O-])c2ccccc2[n+]1[O-])[N+](=O)[O-] (stereo not drawn) [Example P-2230, 2-(1-hydroxy-2-nitropropyl)quinoxaline-1,4-dioxide]
feed efficiency [2, 8]: 1.45
Increase in feed efficiency ([2]; Table 2): 7.1
Increase in weight ([2]; Table 2): 6.5%
Body weight gain, av [2, 9]: 222.37 g

COC(=O)C(C(OC(C)=O)c1c[n+]([O-])c2ccccc2[n+]1[O-])[N+](=O)[O-] (stereo not drawn) [Example P-2236]
Body weight gain, av ([2]; Table 4, control 97.33): 154.92 g
feed efficiency ([2]; Table 4, feed consumed to weight gained, control 1.84): 1.56
Increase in feed efficiency ([2]; Table 4): 15.2
Increase in weight ([2]; Table 4): 59.17%

CCC(C(OC(C)=O)c1c[n+]([O-])c2ccccc2[n+]1[O-])[N+](=O)[O-] (stereo not drawn) [Example P-2277, 2-(1-acetoxy-2-nitrobutyl)quinoxaline-1,4-dioxide]
feed efficiency [1]: increases the feed efficiency
growth rate [1]: improves the growth rate

CC(C)(C(O)c1c[n+]([O-])c2ccccc2[n+]1[O-])[N+](=O)[O-] (stereo not drawn) [Example P-2265, 2-(1-hydroxy-2-methyl-2-nitropropyl)quinoxaline-1,4-dioxide]
Body weight gain, av ([2]; Table 3, control 128.6): 188.7 g
feed efficiency [2, 5]: 1.59
Increase in feed efficiency ([2]; Table 3): 12.6
Increase in weight ([2]; Table 3): 46.7%

CC(=O)OC(c1c[n+]([O-])c2ccccc2[n+]1[O-])C(C)[N+](=O)[O-] (stereo not drawn) [Example P-2242, 2-(1-acetoxy-2-nitropropyl)quinoxaline-1,4-dioxide]
Body weight gain, av ([2]; Table 5, control 165.7): 210.6 g
feed efficiency ([2]; Table 5, feed consumed to weight gained, control 1.57): 1.48
Increase in feed efficiency ([2]; Table 5): 5.7
Increase in weight ([2]; Table 5): 27.1%

O=[N+]([O-])CC(O)c1c[n+]([O-])c2ccccc2[n+]1[O-] (stereo not drawn) [Example P-2231, 2-(1-hydroxy-2-nitroethyl)-quinoxaline-1,4-dioxide]
feed efficiency [2, 8]: 1.46
Increase in feed efficiency ([2]; Table 2): 6.4
Increase in weight ([2]; Table 2): 6.1%
Body weight gain, av [2, 9]: 221.54 g

Reference: patent US4303657A, “Nitrohydroxyalkyl-substituted quinoxaxiline dioxides and alkanoic acid esters thereof” (International Minerals & Chemical Corp., priority 1979, dated 1981)
